Several values for one entry are separate records, joined by “and”; a condition that tells them apart may be missing. Equal entries are not always repeated. Inconclusive results and toxic doses are left out.
System: L1210 leukemia ip in BDF1 mice, survival T/C
Experiment: NCI In Vivo Anticancer Drug Screen. Data for tumor model L1210 Leukemia (intraperitoneal) in B6D2F1 (BDF1) mice
Details: endpoint: mean survival time, higher = longer survival
Outline: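 Antitumor effect is assessed in tumor-bearing animals. Survival in the compound arm is compared with a vehicle-dosed control arm and expressed as their quotient.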

[1] = dose: 100.0 mg/kg/injection, schedule: Q01DX001 (ip), vehicle: saline
[2] = dose: 200.0 mg/kg/injection, schedule: Q01DX001 (ip), vehicle: saline
[3] = dose: 400.0 mg/kg/injection, schedule: Q01DX001 (ip), vehicle: saline
[4] = dose: 100.0 mg/kg/injection, schedule: Q04DX002 (ip), vehicle: saline with Tween-80
[5] = dose: 200.0 mg/kg/injection, schedule: Q04DX002 (ip), vehicle: saline with Tween-80
[6] = dose: 400.0 mg/kg/injection, schedule: Q04DX002 (ip), vehicle: saline with Tween-80
[7] = dose: 100.0 mg/kg/injection, schedule: Q04DX003 (ip), vehicle: Klucel (hydroxypropylcellulose) (HPC)
[8] = dose: 200.0 mg/kg/injection, schedule: Q04DX003 (ip), vehicle: Klucel (hydroxypropylcellulose) (HPC)
[9] = dose: 400.0 mg/kg/injection, schedule: Q04DX003 (ip), vehicle: Klucel (hydroxypropylcellulose) (HPC)
[10] = dose: 100.0 mg/kg/injection, schedule: Q04DX003 (ip), vehicle: saline
[11] = dose: 200.0 mg/kg/injection, schedule: Q04DX003 (ip), vehicle: saline
[12] = dose: 400.0 mg/kg/injection, schedule: Q04DX003 (ip), vehicle: saline

Q: With Nc1nc(F)nc2c1ncn2C1OC(CO)C(O)C1O (centres undefined) as the molecule, how does the T/C (dose: 0.75 mg/kg/injection, schedule: Q01DX Z (ip), vehicle: saline) read?
A: 106 % of control

Q: What about the T/C (dose: 1.0 mg/kg/injection, schedule: Q01DX015 (ip), vehicle: saline) of the same molecule?
A: 104 % of control

Q: What about the T/C (dose: 1.5 mg/kg/injection, schedule: Q01DX Z (ip), vehicle: saline) of the same molecule?
A: 112 % of control

Q: What about the T/C (dose: 1.6 mg/kg/injection, schedule: Q01DX015 (ip), vehicle: saline) of the same molecule?
A: 98 % of control

Q: What about the T/C (dose: 2.4 mg/kg/injection, schedule: Q01DX015 (ip), vehicle: saline) of the same molecule?
A: 96 % of control

Q: And the T/C (dose: 3.0 mg/kg/injection, schedule: Q01DX Z (ip), vehicle: saline)?
A: 104 % of control

Q: And the T/C (dose: 3.6 mg/kg/injection, schedule: Q01DX015 (ip), vehicle: saline)?
A: 96 % of control

Q: And the T/C (dose: 5.4 mg/kg/injection, schedule: Q01DX015 (ip), vehicle: saline)?
A: 87 % of control

Q: And the T/C (dose: 6.0 mg/kg/injection, schedule: Q01DX Z (ip), vehicle: saline)?
A: 113 % of control

Q: And the T/C (dose: 65.0 mg/kg/injection, schedule: Q03HX024 (ip), vehicle: saline with Tween-80)?
A: 205 % of control

Q: What about the T/C (dose: 65.0 mg/kg/injection, schedule: Q06HX012 (ip), vehicle: saline with Tween-80) of the same molecule?
A: 160 % of control

Q: What about the T/C (dose: 80.0 mg/kg/injection, schedule: Q03HX024 (ip), vehicle: saline with Tween-80) of the same molecule?
A: 291 % of control

Q: What about the T/C (dose: 80.0 mg/kg/injection, schedule: Q06HX012 (ip), vehicle: saline with Tween-80) of the same molecule?
A: 177 % of control

Q: What about the T/C (dose: 90.0 mg/kg/injection, schedule: Q03HX024 (ip), vehicle: saline with Tween-80) of the same molecule?
A: 276 % of control

Q: What about the T/C [1] of the same molecule?
A: 105 % of control

Q: What about the T/C (dose: 100.0 mg/kg/injection, schedule: Q03HX024 (ip), vehicle: saline with Tween-80) of the same molecule?
A: 301 % of control and 357 % of control (2×)

Q: And the T/C (dose: 100.0 mg/kg/injection, schedule: Q03HX024 (oral), vehicle: saline with Tween-80)?
A: 160 % of control

Q: And the T/C (dose: 110.0 mg/kg/injection, schedule: Q03HX024 (ip), vehicle: saline with Tween-80)?
A: 157 % of control

Q: What about the T/C (dose: 125.0 mg/kg/injection, schedule: Q03HX024 (ip), vehicle: saline with Tween-80) of the same molecule?
A: 100 % of control

Q: What about the T/C (dose: 125.0 mg/kg/injection, schedule: Q06HX012 (ip), vehicle: saline with Tween-80) of the same molecule?
A: 163 % of control

Q: And the T/C (dose: 150.0 mg/kg/injection, schedule: Q03HX024 (ip), vehicle: saline with Tween-80)?
A: 83 % of control

Q: What about the T/C (dose: 150.0 mg/kg/injection, schedule: Q03HX024 (oral), vehicle: saline with Tween-80) of the same molecule?
A: 166 % of control

Q: What about the T/C (dose: 150.0 mg/kg/injection, schedule: Q06HX012 (ip), vehicle: saline with Tween-80) of the same molecule?
A: 181 % of control and 326 % of control

Q: And the T/C [2]?
A: 107 % of control

Q: And the T/C (dose: 200.0 mg/kg/injection, schedule: Q06HX012 (ip), vehicle: saline with Tween-80)?
A: 219 % of control

Q: What about the T/C (dose: 250.0 mg/kg/injection, schedule: Q06HX012 (ip), vehicle: saline with Tween-80) of the same molecule?
A: 122 % of control

Q: And the T/C (dose: 300.0 mg/kg/injection, schedule: Q01DX009 (ip), vehicle: saline with Tween-80)?
A: 86 % of control

Q: And the T/C (dose: 300.0 mg/kg/injection, schedule: Q12HX006 (ip), vehicle: saline with Tween-80)?
A: 204 % of control and 225 % of control

Q: And the T/C (dose: 350.0 mg/kg/injection, schedule: Q12HX006 (ip), vehicle: saline with Tween-80)?
A: 205 % of control

Q: What about the T/C [3] of the same molecule?
A: 122 % of control

Q: And the T/C (dose: 400.0 mg/kg/injection, schedule: Q12HX006 (ip), vehicle: saline with Tween-80)?
A: 207 % of control and 288 % of control

Q: And the T/C (dose: 450.0 mg/kg/injection, schedule: Q12HX006 (ip), vehicle: saline with Tween-80)?
A: 228 % of control

Q: And the T/C (dose: 600.0 mg/kg/injection, schedule: Q04DX003 (ip), vehicle: saline with Tween-80)?
A: 186 % of control

Q: What about the T/C (dose: 750.0 mg/kg/injection, schedule: Q12HX006 (ip), vehicle: saline with Tween-80) of the same molecule?
A: 106 % of control

Q: What about the T/C (dose: 800.0 mg/kg/injection, schedule: Q04DX003 (ip), vehicle: saline with Tween-80) of the same molecule?
A: 200 % of control

Q: And the T/C (dose: 1000.0 mg/kg/injection, schedule: Q04DX003 (ip), vehicle: saline with Tween-80)?
A: 205 % of control

Q: Which T/C (dose: 100.0 mg/kg/injection, schedule: Q01DX009 (ip), vehicle: saline with Tween-80) does the source give for Nc1nc(NCCCc2ccccc2)c([N+](=O)[O-])c(=O)[nH]1 here?
A: 93 % of control

Q: What about the T/C (dose: 200.0 mg/kg/injection, schedule: Q01DX009 (ip), vehicle: saline with Tween-80) of the same molecule?
A: 97 % of control

Q: What does the source list for CCOC(=O)C(=O)C1C(=O)C(=O)C(c2ccccc2)C1=O (centres undefined)?
A: T/C (dose: 75.0 mg/kg/injection, schedule: Q01DX001 (ip), vehicle: carboxymethylcellulose (CMC)): 104 % of control; T/C (dose: 150.0 mg/kg/injection, schedule: Q01DX001 (ip), vehicle: carboxymethylcellulose (CMC)): 100 % of control; T/C (dose: 300.0 mg/kg/injection, schedule: Q01DX001 (ip), vehicle: carboxymethylcellulose (CMC)): 105 % of control

Q: CCOC(OCC)c1nc(N)nc(N)c1-c1ccc(Cl)c(Cl)c1 was tested. Which T/C (dose: 11.0 mg/kg/injection, schedule: Q01DX009 (ip), vehicle: other) did it give?
A: 98 % of control

Q: And the T/C (dose: 22.5 mg/kg/injection, schedule: Q01DX009 (ip), vehicle: other)?
A: 101 % of control

Q: And the T/C (dose: 45.0 mg/kg/injection, schedule: Q01DX009 (ip), vehicle: other)?
A: 101 % of control

Q: And the T/C (dose: 89.0 mg/kg/injection, schedule: Q01DX009 (ip), vehicle: saline)?
A: 102 % of control

Q: What about the T/C (dose: 90.0 mg/kg/injection, schedule: Q01DX009 (ip), vehicle: other) of the same molecule?
A: 115 % of control

Q: And the T/C [1]?
A: 100 % of control

Q: What about the T/C (dose: 134.0 mg/kg/injection, schedule: Q01DX009 (ip), vehicle: saline) of the same molecule?
A: 119 % of control

Q: What about the T/C [2] of the same molecule?
A: 107 % of control

Q: And the T/C (dose: 300.0 mg/kg/injection, schedule: Q01DX009 (ip), vehicle: saline)?
A: 101 % of control

Q: Which results are given for COC1CCC(OC)(C(=O)NN)O1 (centres undefined)?
A: T/C [1]: 95 % of control; T/C [2]: 95 % of control; T/C [3]: 102 % of control

Q: For CCOc1ccc(N=Cc2ccc(OC(=O)c3ccccc3)c(OC)c2)cc1, which T/C [4] is on record?
A: 102 % of control

Q: And the T/C [5]?
A: 95 % of control

Q: What about the T/C [6] of the same molecule?
A: 113 % of control

Q: Which T/C [7] does the source give for CSc1cccc(NC(=O)NCCCl)c1 here?
A: 104 % of control

Q: What about the T/C [8] of the same molecule?
A: 103 % of control

Q: And the T/C [9]?
A: 93 % of control

Q: CC(=O)N1CCN(C(C)=O)c2ccccc21 was tested. Which T/C [7] did it give?
A: 106 % of control

Q: What about the T/C [8] of the same molecule?
A: 103 % of control

Q: What about the T/C [9] of the same molecule?
A: 106 % of control

Q: Which results are given for COc1ccc(CNCC(=O)O)cc1?
A: T/C (dose: 100.0 mg/kg/injection, schedule: Q01DX009 (ip), vehicle: saline): 100 % of control; T/C [10]: 96 % of control; T/C (dose: 200.0 mg/kg/injection, schedule: Q01DX009 (ip), vehicle: saline): 100 % of control; T/C [11]: 98 % of control; T/C (dose: 400.0 mg/kg/injection, schedule: Q01DX009 (ip), vehicle: saline): 105 % of control; T/C [12]: 96 % of control

Q: For NNc1ccccc1-c1nc(N)nc(N)n1, which T/C (dose: 9.38 mg/kg/injection, schedule: Q01DX001 (ip), vehicle: other) is on record?
A: 109 % of control

Q: And the T/C (dose: 18.75 mg/kg/injection, schedule: Q01DX001 (ip), vehicle: other)?
A: 112 % of control

Q: And the T/C (dose: 37.5 mg/kg/injection, schedule: Q01DX001 (ip), vehicle: other)?
A: 118 % of control

Q: O=C1N(c2ccccc2)C(c2ccccc2)C1(c1ccccc1)c1ccccc1 (centres undefined) was tested. Which T/C (dose: 100.0 mg/kg/injection, schedule: Q01DX001 (ip), vehicle: gum acacia) did it give?
A: 92 % of control

Q: What about the T/C (dose: 200.0 mg/kg/injection, schedule: Q01DX001 (ip), vehicle: gum acacia) of the same molecule?
A: 86 % of control

Q: What about the T/C (dose: 400.0 mg/kg/injection, schedule: Q01DX001 (ip), vehicle: gum acacia) of the same molecule?
A: 94 % of control

Q: Which results are given for CCOc1ccc(OCC)c(NC(=O)Nc2ccccc2Cl)c1?
A: T/C [5]: 90 % of control; T/C [6]: 87 % of control

Q: CC(CO)[CH2][Sn]([c]1ccccc1)([c]1ccccc1)[c]1ccccc1 (centres undefined) was tested. Which T/C [4] did it give?
A: 98 % of control and 101 % of control

Q: And the T/C [5]?
A: 98 % of control

Q: And the T/C [6]?
A: 95 % of control and 98 % of control

Q: For CCOC1CC2c3ccccc3C1c1cccc[n+]12 (centres undefined), which T/C (dose: 12.5 mg/kg/injection, schedule: Q01DX009 (ip), vehicle: saline) is on record?
A: 100 % of control

Q: What about the T/C (dose: 12.5 mg/kg/injection, schedule: Q04DX003 (ip), vehicle: saline) of the same molecule?
A: 100 % of control and 94 % of control

Q: What about the T/C (dose: 25.0 mg/kg/injection, schedule: Q01DX009 (ip), vehicle: saline) of the same molecule?
A: 98 % of control

Q: And the T/C (dose: 25.0 mg/kg/injection, schedule: Q04DX003 (ip), vehicle: saline)?
A: 89 % of control and 101 % of control

Q: What about the T/C (dose: 50.0 mg/kg/injection, schedule: Q01DX009 (ip), vehicle: saline) of the same molecule?
A: 94 % of control and 96 % of control

Q: What about the T/C (dose: 50.0 mg/kg/injection, schedule: Q04DX003 (ip), vehicle: saline) of the same molecule?
A: 97 % of control and 101 % of control

Q: And the T/C (dose: 75.0 mg/kg/injection, schedule: Q01DX009 (ip), vehicle: saline)?
A: 88 % of control

Q: And the T/C [10]?
A: 98 % of control

Q: What about the T/C [11] of the same molecule?
A: 107 % of control

Q: What about the T/C [12] of the same molecule?
A: 86 % of control

From PubChem BioAssay AID248 (DTP/NCI, 2004)
